The values below come from patent publication US20240060949A1, “BIOSYSTEMS TO DETECT CHEMICAL CONTAMINANTS” (priority 2020, published 2024).

Like-named read-outs stand apart in the source and are kept apart here.

The subject of one series is CYP1A2 and CYP2C19. In kind it is biochemical. The method, then:
The bioassay was performed in a 96-well plate. 80 μL of sample is added to wells in triplicate. […] After the preparation, 10 μL of enzyme mixture were added to each plate. After incubating at room temperature 10 μL of substrate mixture (5 μM of substrate EOMCC and 30 μM Vivid® NADP^+ diluted in working buffer) was added. The plate was incubated 30 minutes at 30° C. and when time passed, fluorescence signal was measured with a fluorometric reader, 410 nm and 460 nm were the excitation and emission wavelengths, respectively. A blank sample, buffer solution, was measured at the same time and the reduction of the signal, inhibition of enzyme activity, was calculated and associated with the presence of contaminants.

Series [1] addresses T1, CYP3A4 (Homo sapiens, UniProt P08684). In kind it is biochemical. The conditions noted are these: CYP3A4, DBF substrate; concentration providing 20% inhibition (IC20). The method, then: (§1) The bioassay was performed in a 96-well plate. 50 μL of a solution containing PAHs or BFRs is added to wells in triplicate. […] After incubating at room temperature 10 μL of substrate mixture (5 μM of substrate (EOMCC for CYP1A2, BOMCC for CYP2B6 or DBF for CYP3A4) and 30 μM Vivid® NADP^+ diluted in working buffer) was added. The plate was incubated 30 minutes at 25° C. and when time passed, fluorescence signal was measured with a fluorometric reader, 410/490 nm and 460/520 nm were the excitation and emission wavelengths, respectively. A blank sample, buffer solution, was measured at the same time and the reduction of the signal, inhibition of enzyme activity, was calculated and associated with the presence of contaminants.

Series [2] addresses T1, CYP3A4. The class given is biochemical. The conditions noted are these: for Inhibition percentage I (%): lateral flow reader; for Limit of detection: CYP3A4 lateral flow, concentration providing 20% of inhibition, estimated. The method, then:
The metabolism of two different fluorescent substrates was used to determine the percent of inhibition of CYP3A4 as response to the contaminant concentrations. The enzymatic reactions were carried out in 96-well plates adding 80 μL of potassium phosphate buffer (100 mM, pH 8.0) or 100 ng/mL of standard solutions in duplicates. Both brominated compounds were prepared in potassium phosphate buffer (100 mM, pH 8.0) and tested as inhibitors of CYP3A4 activity. […] Subsequently, 10 μL of enzyme mixture were added to each well, homogenised and allowed to pre-incubate during 10 minutes at room temperature. Two different substrate mixtures were used in combination with brominated molecules. To evaluate the inhibition promoted by BDE-100, 10 μL of a substrate mixture containing 2 μM of DBF and 30 μM Vivid® NADP+ in potassium phosphate buffer (100 mM, pH8.0), were added to the appropriated wells. The inhibitory effect of HBCD concentration was tested for a substrate mixture, containing 2 μM of DBOMF and 30 μM Vivid® NADP+ prepared in potassium phosphate buffer (100 mM, pH8.0), from which 10 μL were added to the appropriated wells. After the addition of the respective substrate probes, the plate was newly incubated at 25° C. for 60 minutes. The resulting reaction broths were diluted 10 and 20 times in buffer, for respectively DBF and BDE-100, and for DBOMF and HBCD reactions. Finally, 1.5 μL of diluted broths were pipetted as a line onto nitrocellulose membranes and the fluorometric measurements carried out at a lateral flow reader (ESEQuant LR3, QIAGEN) with a fluorometric channel of 470 nm and 520 nm as excitation and emission wavelengths, respectively. A blank sample, buffer solution, was measured at the same time and the reduction of the signal, inhibition of enzyme activity, was calculated and associated with the presence of each BDE, as shown in Table 5.
Considering the signal intensity developed for different levels of the contaminant molecules, the concentration providing 20% of inhibition was selected as limit of detection, estimated to be 36 ng/mL and 14 ng/mL for BDE-100 and HBCD, respectively.

The next series addresses CYP2B10 (Mus musculus, UniProt P12791). Conditions: CYP2B10, 3 μM BOMCC; concentration that induces 20% inhibition (Table 8).
In series [3] the target is T1, CYP3A4. Conditions: pH 8.
Series [4] deals with T2, CYP2B6 (Homo sapiens, UniProt P20813). The conditions noted are these: pH 7.4.
The target of series [5] is T2, CYP2B6. In kind it is biochemical. The method, then:
as §1

For series [6], the target named is T1, CYP3A4. In kind it is biochemical. The conditions noted are these: CYP3A4 electrochemical biosensor, 50 μM progesterone, estimated. The method, then:
The working electrodes (WE) of screen-printed carbon electrodes (SPCE) (C110, from Methrom-Dropsens), were modified with 3 μL suspension of 1 mg/mL of single-walled carbon nanotubes. After chloroform evaporation, 5 μL of a 0.08 nmol/mL solution of CYP3A4 (recombinant, expressed in E. Coli from Sigma-Aldrich) was deposited onto the modified WE surface and incubated overnight at 4° C. 100 mM of potassium phosphate buffer saline (PBS) at pH 8.0, containing 50 mM of potassium chloride, was used to prepare the standards, as well as a supporting electrolyte for the electrochemical measurements. Aliquots (60 μL) of 50 μM progesterone solutions containing 0, 50, 100, 200 and 300 ng/mL of HBCD, were placed onto the working area of the SPCE by drop-casting, incubated for 2 minutes at room temperature and the electrochemical measurements performed. For each sample, one cyclic voltammetric scan was carried out, sweeping the potential from −0.75 V to 0.30 V at 0.02 V/s. The peak height of the cathodic peaks generated near to −0.55 V was registered and HBCD presence, calculated using as reference the peak of the blank assay (buffer solution). The electrochemical signal registered at CYP3A4-based biosensor, respond to the concentration of HBCD, allowing to establish the I (%) values for different concentrations of this compound (FIG. 1). Limit of detection was estimated to be 42.8 ng/mL for HBCD.

Where [7] appears, read: CYP2B6, BOMCC substrate, concentration providing 20% inhibition (IC20).

T2 sequence (P20813 whole entry): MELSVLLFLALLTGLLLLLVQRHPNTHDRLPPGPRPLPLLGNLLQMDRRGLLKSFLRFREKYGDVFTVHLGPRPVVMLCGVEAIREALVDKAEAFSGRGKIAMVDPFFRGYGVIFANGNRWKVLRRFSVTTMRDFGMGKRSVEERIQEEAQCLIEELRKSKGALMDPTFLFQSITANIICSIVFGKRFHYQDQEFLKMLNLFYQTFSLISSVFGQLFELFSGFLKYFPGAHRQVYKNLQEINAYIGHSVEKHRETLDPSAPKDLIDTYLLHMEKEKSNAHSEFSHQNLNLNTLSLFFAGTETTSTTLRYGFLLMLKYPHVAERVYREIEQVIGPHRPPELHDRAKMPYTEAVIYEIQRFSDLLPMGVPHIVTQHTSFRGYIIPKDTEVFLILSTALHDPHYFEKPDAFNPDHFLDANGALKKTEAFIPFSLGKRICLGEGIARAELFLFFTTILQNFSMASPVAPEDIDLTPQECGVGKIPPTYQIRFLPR
T1 sequence (P08684 whole entry): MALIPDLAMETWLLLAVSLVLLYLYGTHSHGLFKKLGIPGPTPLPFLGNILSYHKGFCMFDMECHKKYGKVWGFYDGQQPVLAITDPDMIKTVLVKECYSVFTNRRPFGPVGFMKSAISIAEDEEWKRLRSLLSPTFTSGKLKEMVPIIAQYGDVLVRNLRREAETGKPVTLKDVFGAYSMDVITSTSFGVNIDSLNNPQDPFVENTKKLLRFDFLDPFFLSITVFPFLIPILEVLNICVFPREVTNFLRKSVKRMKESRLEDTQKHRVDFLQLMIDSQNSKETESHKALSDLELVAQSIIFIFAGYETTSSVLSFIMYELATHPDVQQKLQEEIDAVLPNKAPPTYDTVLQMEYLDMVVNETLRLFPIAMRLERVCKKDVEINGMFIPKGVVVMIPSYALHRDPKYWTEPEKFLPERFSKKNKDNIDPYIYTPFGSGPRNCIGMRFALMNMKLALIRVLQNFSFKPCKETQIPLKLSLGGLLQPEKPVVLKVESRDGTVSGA
Sequence of CYP2B10 (P12791 whole entry): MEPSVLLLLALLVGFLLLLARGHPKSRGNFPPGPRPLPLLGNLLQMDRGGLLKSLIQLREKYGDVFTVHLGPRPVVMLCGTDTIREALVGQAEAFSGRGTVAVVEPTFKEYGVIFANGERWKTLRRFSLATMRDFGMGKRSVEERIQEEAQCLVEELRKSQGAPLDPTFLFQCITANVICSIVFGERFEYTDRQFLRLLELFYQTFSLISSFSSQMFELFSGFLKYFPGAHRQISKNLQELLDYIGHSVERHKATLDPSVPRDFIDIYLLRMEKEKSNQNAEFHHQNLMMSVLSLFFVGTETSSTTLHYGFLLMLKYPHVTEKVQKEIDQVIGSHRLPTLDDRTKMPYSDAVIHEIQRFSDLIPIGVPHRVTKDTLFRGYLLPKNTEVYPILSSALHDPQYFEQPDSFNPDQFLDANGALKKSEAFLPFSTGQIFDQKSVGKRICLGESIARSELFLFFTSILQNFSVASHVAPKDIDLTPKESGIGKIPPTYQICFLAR

In turn, 13,19-didesmethyl C spirolide displayed a Limit of detection in the series with CYP1A2 and CYP2C19 of 10 µg/L.

Consider `C=C(C[C@@]12C[C@@H](C)C[C@H](O1)[C@H]1O[C@]3(C[C@H]1O2)NC[C@H](C)C[C@@H]3C)[C@H]1O[C@@](O)([C@@H](O)[C@@H]2C[C@H]3O[C@@]4(CC[C@]5(CC=C[C@@H](/C=C/CCC(=O)O)O5)O4)[C@H](C)C[C@H]3O2)[C@H](C)C[C@@H]1C` [Azaspiracid-1], for which the Limit of detection in the series on CYP1A2 and CYP2C19 (CYP1A2 and CYP2C19, 5 μM EOMCC, concentration that induces 20% inhibition) came out at 3 µg/L.

With `Brc1ccc(Oc2ccc(Br)cc2Br)cc1` [BDE-28, 2,4,4′-Tribromodiphenyl ether], on CYP3A4 [1], the Limits of detection came out at 100 ng/mL.

On CYP3A4 [1], `Brc1ccc(Oc2ccc(Br)cc2Br)c(Br)c1` [BDE-47, 2,2′,4,4′-Tetrabromodiphenyl ether] came in with a Limits of detection of 5 ng/mL.

On CYP3A4 [1], `Brc1ccc(Oc2cc(Br)c(Br)cc2Br)c(Br)c1` [BDE-99, 2,2′,4,4′,5-Pentabromodiphenyl ether] had a Limits of detection of 100 ng/mL.

At CYP3A4 [1], `Brc1ccc(Oc2c(Br)cc(Br)cc2Br)c(Br)c1` [BDE-100, 2,2′,4,4′,6-Pentabromodiphenyl ether] had a Limits of detection of 5 ng/mL. At CYP3A4 [2] (CYP3A4, 2 μM DBF, 100 ng/ml contaminant), the “Inhibition percentage I (%)” value came out at 55.4%. Moreover, the Limit of detection on CYP3A4 [2] (DBF substrate) is 36 ng/mL.

Compound `Brc1cc(Br)c(Oc2cc(Br)c(Br)cc2Br)cc1Br` [BDE-153, 2,2′,4,4′,5,5′-Hexabromodiphenyl ether] registered a Limits of detection at CYP3A4 [1] of 5 ng/mL.

As to `Brc1cc(Br)c(Oc2cc(Br)c(Br)cc2Br)c(Br)c1` [BDE-154, 2,2′,4,4′,5,6′-Hexabromodiphenyl ether], at CYP3A4 [1], the Limits of detection stood at 5 ng/mL.

Take `Brc1c(Br)c(Br)c(Oc2c(Br)c(Br)c(Br)c(Br)c2Br)c(Br)c1Br` [BDE-209, Decabromodiphenyl ether]: at CYP3A4 [1], the Limits of detection is 10 ng/mL.

Consider `[CH3][Hg][Cl]` [Methylmercury], for which the “Limits of detection CYP2B10” value on CYP2B10 was 44.3 ng/mL.

Turning to `N[C@@H](CCC(=O)O)C(=O)[O-].[Na+]` [Monosodium glutamate], at CYP3A4 [3], the “Limits of detection CYP3A4” value is given as 3.6 mg/mL.

On to `O=C([O-])c1ccccc1.[Na+]` [Sodium Benzoate], for which the “Limits of detection CYP2B10” value on CYP2B10 was found to be 3.2e+06 ng/mL.

`O=NO` [Sodium Nitrite]: the “Limits of detection CYP2B6” value at CYP2B6 [4] was found to be 2.3 mg/mL.

For `C=CCC(=C)/C=C/[C@@](C)(O)[C@H]1O[C@@H]2C[C@@H]3O[C@@H]4C[C@@H]5O[C@@H]6C[C@@H]7O[C@@H]8C[C@@H]9O[C@@H]%10C[C@@H]%11O[C@](C)(CCOS(=O)(=O)O)[C@@H](OS(=O)(=O)O)C[C@H]%11O[C@H]%10C[C@H]9O[C@H]8CC[C@@]7(C)O[C@@]6(C)CC[C@H](C)[C@H]5O[C@H]4C[C@@]3(C)O[C@H]2CC1=C` [Yessotoxin], in the series on CYP1A2 and CYP2C19 (human), the Limit of detection amounted to 45 µg/L.

Regarding `c1ccc2cc3c(ccc4ccccc43)cc2c1` [benz(a)anthracene (BaA), benz(a)anthracene], at CYP2B6 [5] (human), the Limit of detection amounted to 5 µg/L.

Regarding `c1ccc2c(c1)cc1ccc3cccc4ccc2c1c34` [benzo(a)pyrene (BaP), benzo(a)pyrene], the Limit of detection on CYP2B6 [5] (setting [7]) turned out to be 15 µg/L.

On to `c1ccc2c(c1)-c1cccc3c1c-2cc1ccccc13` [benzo(b)fluoranthene (BbF), benzo(b)fluoranthene], for which the Limit of detection on CYP2B6 [5] (setting [7]) was determined as 20 µg/L.

Take `c1ccc2c(c1)ccc1c3ccccc3ccc21` [chrysene (Chrys), chrysene]: on CYP2B6 [5] (setting [7]), the Limit of detection is 10 µg/L.

Take Hexabromocyclododecane [HBCD]: the “Inhibition percentage I (%)” value was 69.8% at CYP3A4 [2] (CYP3A4, 2 μM DBOMF, 50 ng/mL contaminant) and 84.3% at CYP3A4 [2] (CYP3A4, 2 μM DBOMF, 100 ng/mL contaminant). Besides, the Limit of detection at CYP3A4 [2] (DBOMF substrate) is listed as 14 ng/mL; at CYP3A4 [6] it was 42.8 ng/mL.
